We go through four substances from patent US9345755B2, “Composition and methods for treating melanoma” (University of Virginia Patent Foundation, priority 2012, dated 2016).

“Also recorded” adds a separate entry of the source. Ends that are not written are not given here.

The nature of data set [1]: physchem.
Method: Vaccines are prepared by solubilization of each peptide in aqueous solutions, then sterile filtration, mixing, and vialing at 600 mcg per vial.
It is then sterile-filtered. […] It is then sterile-filtered.
The solubilization regimen was difficult to establish for the 8 long peptides.
These 3 sterile solutions will be combined and will be brought up to a concentration of 600 mcg/ml of each peptide using sterile water, lactated ringer's solution or normal saline solution. The pH of the mixture will be about 8-8.50, for a concentration of 600 micrograms per ml of each peptide.
Data set [2] concerns high-risk ovarian cancer patients. The settings on record: human, in vivo; cited from earlier work.
A short description of data set [3]: Stability of peptide against alkaline hydrolysis at pH 12. The data set is classed as physicochemical. The settings on record: pH 12, NaOH. An excerpt: It will be sterile-filtered.

For the substance “LLHLAVIGALLAVGATKVPRNQDWLGVSRQL [Peptide 6]”, the solubility in data set [1] is 10 mg/mL.

“NY-ESO-179-108: long peptide, residues 79-108 of cancer-testis antigen NY-ESO-1 (GARGPESRLLEFYLAMPFATPMEAELARRS; UniProt P78358 79-108, looked up, fragment)”: the “CD4 T cell responses after vaccination” value in data set [2] is “induces CD4 T cell responses”.

With “SMHNALHIYMDGTMSQVQGSANDPIFLLHH [Peptide 3]”, the “stability (hydrolysis/degradation) of peptide” value in data set [3] was “stable at this pH and is not hydrolyzed or degraded; also recorded: hydrolysis is not an issue and the peptide is intact”.

As for “VPLAHSSSAFTIMDQVPFSVSVSQLRALDG [Peptide 4]”, the solubility in data set [1] was 20 mg/mL.

What is called solubility is the concentration that dissolves in the medium under given conditions. A higher solubility goes with a readily soluble substance.
